The target in one test is Cannabinoid receptor 1 (Homo sapiens, UniProt P21554). The test is described as follows: Displacement of [3H]CP-55940 from CB1 receptor. (In a radioligand displacement assay an active substance lowers the binding of a labelled ligand.)
The next test addresses Cannabinoid receptor 2 (Homo sapiens, UniProt P34972). The test is described as follows: Displacement of [3H]CP-55940 from CB2 receptor.
Test [1] is described as follows: Selectivity ratio of Ki for CB1 receptor to Ki for CB2 receptor.

The text below walks through data of ChEMBL document CHEMBL1156861, “Synthesis and structure-activity relationship of substitutions at the C-1 position of Delta9-tetrahydrocannabinol” (Bioorg Med Chem Lett, 2010).

SMILES strings stand for the structures.

Usually Ki stands for a dissociation constant, usually derived from enzyme kinetics or from competition with a known ligand. Low readings indicate higher affinity, high ones lower affinity.

Cannabinoid receptor 2, sequence (P34972 whole entry): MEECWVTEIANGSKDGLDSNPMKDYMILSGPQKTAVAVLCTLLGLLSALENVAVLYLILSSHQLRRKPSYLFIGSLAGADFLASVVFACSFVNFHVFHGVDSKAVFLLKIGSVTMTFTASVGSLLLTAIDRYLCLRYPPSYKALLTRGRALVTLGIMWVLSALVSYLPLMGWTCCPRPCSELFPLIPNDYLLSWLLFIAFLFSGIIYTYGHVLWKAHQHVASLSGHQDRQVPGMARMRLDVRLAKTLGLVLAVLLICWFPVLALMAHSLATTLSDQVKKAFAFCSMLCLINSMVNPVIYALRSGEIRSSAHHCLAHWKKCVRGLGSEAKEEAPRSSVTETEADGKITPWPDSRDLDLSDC
Cannabinoid receptor 1, sequence (P21554 whole entry): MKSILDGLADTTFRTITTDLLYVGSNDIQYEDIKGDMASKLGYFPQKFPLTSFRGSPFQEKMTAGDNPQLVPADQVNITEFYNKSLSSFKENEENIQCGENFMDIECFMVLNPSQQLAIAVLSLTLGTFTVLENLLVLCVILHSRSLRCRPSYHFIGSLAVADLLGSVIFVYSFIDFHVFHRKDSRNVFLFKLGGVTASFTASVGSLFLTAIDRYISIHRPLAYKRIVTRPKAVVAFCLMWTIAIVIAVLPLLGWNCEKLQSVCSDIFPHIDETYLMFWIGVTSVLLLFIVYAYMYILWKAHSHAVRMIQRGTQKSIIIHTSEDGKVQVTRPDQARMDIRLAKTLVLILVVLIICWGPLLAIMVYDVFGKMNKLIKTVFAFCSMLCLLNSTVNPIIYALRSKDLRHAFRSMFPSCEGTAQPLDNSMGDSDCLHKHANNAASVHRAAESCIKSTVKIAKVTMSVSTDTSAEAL

As to `CCCCCc1cc2c(c(C(N)=O)c1)[C@@H]1C=C(C)CC[C@H]1C(C)(C)O2`, the results for the Ki on Cannabinoid receptor 1 and on Cannabinoid receptor 2 were more than 3 µM and 2.19 µM, respectively.
Consider `CCCCCc1cc2c(c(C(=O)O)c1)[C@@H]1C=C(C)CC[C@H]1C(C)(C)O2`, for which the Ki on Cannabinoid receptor 1 and on Cannabinoid receptor 2 was more than 3 µM each time.
As for `CCCCCc1cc2c(c([S+](C)[O-])c1)[C@@H]1C=C(C)CC[C@H]1C(C)(C)O2` (single isomer, unassigned; diastereomer A), the Ki was more than 3 µM at Cannabinoid receptor 1 and 1.93 µM at Cannabinoid receptor 2.
With `CCCCCc1cc(C#N)c2c(c1)OC(C)(C)[C@@H]1CCC(C)=C[C@@H]21`, the Ki at Cannabinoid receptor 1 was determined as 1.72 µM; on Cannabinoid receptor 2 it was 0.387 µM. Besides, the Ratio Ki in test [1] turned out to be 3.
Turning to `CCCCCc1cc(NC(=O)NC)c2c(c1)OC(C)(C)[C@@H]1CCC(C)=C[C@@H]21`, the Ki on Cannabinoid receptor 1 is more than 3 µM; at Cannabinoid receptor 2, 2.05 µM.
Regarding `CCCCCc1cc2c(c(N(C)C)c1)[C@@H]1C=C(C)CC[C@H]1C(C)(C)O2`, the inhibitory constant (Ki) on Cannabinoid receptor 1 and at Cannabinoid receptor 2 was more than 3 µM each time.
For the molecule `CCCCCc1cc2c(c([S+](C)[O-])c1)[C@@H]1C=C(C)CC[C@H]1C(C)(C)O2` (single isomer, unassigned; diastereomer B), the Ki at Cannabinoid receptor 1 and on Cannabinoid receptor 2 was more than 3 µM in each case.
With `CCCCCCC(C)(C)c1cc(O)c2c(c1)OC(C)(C)[C@@H]1CCC(C)=C[C@@H]21`, the values for the Ki on Cannabinoid receptor 1 and on Cannabinoid receptor 2 were 0.00024 µM and 0.0002 µM, respectively. Besides, in test [1], the Ratio Ki was found to be 1.
For `CCCCCc1cc2c(c(SC)c1)[C@@H]1C=C(C)CC[C@H]1C(C)(C)O2`, the figures for the Ki on Cannabinoid receptor 1 and at Cannabinoid receptor 2 were 0.955 µM and 0.469 µM, respectively. Moreover, in test [1], the Ratio Ki was 2.
Turning to `CCCCCc1cc(N)c2c(c1)OC(C)(C)[C@@H]1CCC(C)=C[C@@H]21`, the Ki came to 0.616 µM at Cannabinoid receptor 1 and 0.215 µM at Cannabinoid receptor 2. For the same molecule, the Ratio Ki in test [1] turned out to be 3.
As for `CCCCCc1cc(CNC(C)=O)c2c(c1)OC(C)(C)[C@@H]1CCC(C)=C[C@@H]21`, the values for the Ki at Cannabinoid receptor 1 and on Cannabinoid receptor 2 were more than 3 µM and 1.5 µM, respectively.
As for `CCCCCc1cc(CN)c2c(c1)OC(C)(C)[C@@H]1CCC(C)=C[C@@H]21`, the Ki on Cannabinoid receptor 1 and at Cannabinoid receptor 2 was more than 3 µM throughout.
Take `CCCCCc1cc2c(c(C(=O)NCC(N)=O)c1)[C@@H]1C=C(C)CC[C@H]1C(C)(C)O2`: the Ki on Cannabinoid receptor 1 and on Cannabinoid receptor 2 was more than 3 µM each time.
Turning to `CCCCCCC(C)(C)c1cc(NC(C)=O)c2c(c1)OC(C)(C)[C@@H]1CCC(C)=C[C@@H]21`, the Ki on Cannabinoid receptor 1 was 1.34 µM; at Cannabinoid receptor 2 it was 0.216 µM. For the same molecule, the Ratio Ki in test [1] came out at 6.
Consider `CCCCCc1cc2c(c(C(=O)NC)c1)[C@@H]1C=C(C)CC[C@H]1C(C)(C)O2`, for which the Ki on Cannabinoid receptor 1 was more than 3 µM; on Cannabinoid receptor 2, 1.26 µM.
With `CCCCCc1cc(NC(=O)OC)c2c(c1)OC(C)(C)[C@@H]1CCC(C)=C[C@@H]21`, the Ki is more than 3 µM at Cannabinoid receptor 1 and 1.4 µM at Cannabinoid receptor 2.
Take `CCCCCc1cc(NC(=O)c2ccncc2)c2c(c1)OC(C)(C)[C@@H]1CCC(C)=C[C@@H]21`: the figures for the Ki on Cannabinoid receptor 1 and at Cannabinoid receptor 2 were more than 3 µM and 1.77 µM, respectively.
In the case of `CCCCCCC(C)(C)c1cc(NS(C)(=O)=O)c2c(c1)OC(C)(C)[C@@H]1CCC(C)=C[C@@H]21`, the Ki came to 1.84 µM at Cannabinoid receptor 1 and 0.255 µM on Cannabinoid receptor 2. The Ratio Ki in test [1] worked out at 7.
For `CCCCCc1cc(CNS(C)(=O)=O)c2c(c1)OC(C)(C)[C@@H]1CCC(C)=C[C@@H]21`, the Ki at Cannabinoid receptor 1 and on Cannabinoid receptor 2 was more than 3 µM in each case.
As for `CCCCCCC(C)(C)c1cc(C#N)c2c(c1)OC(C)(C)[C@@H]1CCC(C)=C[C@@H]21`, the Ki was 0.0678 µM on Cannabinoid receptor 1 and 0.0053 µM at Cannabinoid receptor 2. The Ratio Ki in test [1] amounted to 13.
In the case of `CCCCCc1cc2c(c(C(=O)N(C)C)c1)[C@@H]1C=C(C)CC[C@H]1C(C)(C)O2`, the Ki is more than 3 µM on Cannabinoid receptor 1 and 1.21 µM at Cannabinoid receptor 2.
As for `CCCCCCC(C)(C)c1cc(N)c2c(c1)OC(C)(C)[C@@H]1CCC(C)=C[C@@H]21`, the Ki on Cannabinoid receptor 1 was 0.0117 µM; on Cannabinoid receptor 2, 0.0029 µM. In addition, the Ratio Ki in test [1] amounted to 4.
Consider `CCCCCc1cc(CNC(N)=O)c2c(c1)OC(C)(C)[C@@H]1CCC(C)=C[C@@H]21`, for which the Ki at Cannabinoid receptor 1 is more than 3 µM; on Cannabinoid receptor 2, 0.782 µM.
With `CCCCCCC(C)(C)c1cc(NC(=O)c2ccncc2)c2c(c1)OC(C)(C)[C@@H]1CCC(C)=C[C@@H]21`, the Ki on Cannabinoid receptor 1 is more than 3 µM; on Cannabinoid receptor 2, 1.09 µM. In addition, the Ratio Ki in test [1] was more than 3.
Take `CCCCCc1cc(NC(C)=O)c2c(c1)OC(C)(C)[C@@H]1CCC(C)=C[C@@H]21`: the inhibitory constant (Ki) at Cannabinoid receptor 1 was more than 3 µM; on Cannabinoid receptor 2 it was 1.4 µM.
Take `CCCCCc1cc2c(c(C(=O)NC(CO)CO)c1)[C@@H]1C=C(C)CC[C@H]1C(C)(C)O2`: the values for the Ki on Cannabinoid receptor 1 and at Cannabinoid receptor 2 were more than 3 µM and 2 µM, respectively.
With `CCCCCCC(C)(C)c1cc(NC(=O)NC)c2c(c1)OC(C)(C)[C@@H]1CCC(C)=C[C@@H]21`, the Ki at Cannabinoid receptor 1 was found to be 0.333 µM; on Cannabinoid receptor 2, 0.257 µM. In test [1], the Ratio Ki worked out at 1.
With `CCCCCc1cc(NS(C)(=O)=O)c2c(c1)OC(C)(C)[C@@H]1CCC(C)=C[C@@H]21`, the Ki on Cannabinoid receptor 1 is more than 3 µM; on Cannabinoid receptor 2 it was 1.72 µM.
Consider `CCCCCc1cc(NC(=O)CN(C)C)c2c(c1)OC(C)(C)[C@@H]1CCC(C)=C[C@@H]21`, for which the Ki on Cannabinoid receptor 1 and at Cannabinoid receptor 2 was more than 3 µM in each case.
With `CCCCCc1cc(NC(N)=O)c2c(c1)OC(C)(C)[C@@H]1CCC(C)=C[C@@H]21`, the Ki on Cannabinoid receptor 1 and at Cannabinoid receptor 2 was more than 3 µM in each case.
